Experimental data published in patent US9511022B2, “Suspension and cake composition containing carbostyryl derivative and silicone oil and/or silicone oil derivative” (Otsuka Pharmaceutical Co., Ltd., priority 2010, dated 2016).

What was measured:
[1] = Mean particle size of aripiprazole/silicone oil suspension by laser diffraction, with and without sonication; format: physicochemical; details: 20 weight % aripiprazole suspension after wet pulverization, before silicone oil addition
Procedure: (§1) Suspensions containing aripiprazole and silicone oil in the contents presented in Table 1 were prepared according to the following method. A 0.1% or 1% silicone oil emulsion prepared by diluting Dow Corning® 365, 35% Dimethicone NF Emulsion (produced by Dow Corning Corporation) in purified water was used as the silicone oil. A sodium carboxymethylcellulose/mannitol/sodium dihydrogenphosphate solution was used as a dispersion medium. The solids content of the aripiprazole was adjusted to about 10 to 20 weight %. No foaming occurred in any of the suspensions.
An aqueous suspension (200 mg aripiprazole/1.1 to 2 mL) containing aripiprazole (IM Depot) and silicone oil was prepared as follows.
Note that the aripiprazole suspension was prepared according to a wet pulverization method that uses a high-pressure homogenizer (see Japanese Patent Application No. 2007-200088 filed by Otsuka Pharmaceutical Co., Ltd.).
An aripiprazole hydrate bulk powder was suspended in a dispersion medium at 20 weight %. […]
(§2) The mean particle size of the suspension prepared as described above was measured using a SALD-3000J or SALD-3100 Laser Diffraction Particle Size Analyzer (produced by Shimadzu Corporation). […]
(§3) Separately, the suspension was sonicated for 1 min with an ultrasonic wave generator attached to the particle size analyzer, and the mean particle size of the treated suspension was measured as described above.

[2] = Mean particle size of Compound (II)/silicone oil suspension by laser diffraction, with and without sonication; format: physicochemical; details: 20 weight % Compound (II) suspension after wet pulverization, before silicone oil addition
Procedure: as §1, with “containing Compound (II)” for “containing aripiprazole”, “Table 4” for “Table 1”, “of Compound (II)” for “of the aripiprazole”, “to” for “to about”
An aqueous suspension (200 mg Compound (II)/1.1 to 2 mL) containing Compound (II) and silicone oil was prepared as follows. Note that the Compound (II) suspension was prepared in the same manner as in Example 1 except that the pulverizing time using a high-pressure homogenizer was shortened.
A Compound (II) bulk powder was suspended in a dispersion medium at 20 weight %. […]
as §2, §3

Mean primary particle size of the resulting suspension [1] [μm]	SMILES	Mean primary particle size of the resulting suspension [2] [μm]
2.0	O=C1CCc2ccc(OCCCCN3CCN(c4cccc(Cl)c4Cl)CC3)cc2N1 [aripiprazole, Aripiprazole]	
	O=c1ccc2ccc(OCCCCN3CCN(c4cccc5sccc45)CC3)cc2[nH]1 [Compound (II), 7-[4-(4-benzo[b]thiophen-4-yl-piperazin-1-yl)butoxy]-1H-quinolin-2-one]	5.3
